# Tested on: GL261-Luc cells (syngeneic orthotopic gliomas)
# Experiment: GL261-luc intracranial orthotopic syngeneic brain (glioma) model, survival
# Assay type: in vivo, C57BL/6J mice
# Experimental: Female C57BL/6J mice (Beijing VR Laboratory Animal Co., LTD; 6 to 8 weeks old, approximately 18-22 g) were used for intracranial […] orthotopic glioma experiment. To establish syngeneic orthotopic gliomas, 200,000 GL261-Luc cells were stereotactically injected in a 3-μL volume of PBS mixed with 20% Matrigel into the left striatum over 1 minute, 3 mm deep from the cortical surface. Tumor burden was monitored by bioluminescence signal with IVIS imaging by injection 1.5 mg of luciferin per animal prior to imaging. On day 7 after implantation the mice were randomly allocated into treatment arms based on tumor radiance, so that the average tumor radiance in each group was approximately 8.50E+06 photon/sec (Day 0). Animals were treated for 28 days with HBI-2375 (80 mg/kg QD PO), Anti-PD-1 (RMP1-14) antibody (10 mg/kg BIW IP) and/or whole body radiation therapy (2 Gy/day×5 days) in monotherapy, doublet or triplet therapy and as described in the protocol.
# The tumor take rate was 100%. Each arm had 10 mice in survival experiments. Study was terminated on Day 85.
smiles,measurement,setting,value
"Cc1c(F)c(N)cc(C(=O)Nc2cc(-n3cc(C(=O)N4CCN(C)CC4)nn3)c(F)cc2N2C[C@@H](C)N(C)[C@@H](C)C2)c1Cl [HBI-2375, 5-amino-2-chloro-4-fluoro-N-(4-fluoro-5-(4-(4-methylpiperazine-1-carbonyl)-1H-1,2,3-triazol-1-yl)-2-((3S,5R)-3,4,5-trimethylpiperazin-1-yl)phenyl)-3-methylbenzamide]",% Survival at Day 85,"Day 85, same dosing",10%
same,Median Survival,"GL261-Luc intracranial, 10 mice per arm, treated 28 days, HBI-2375 80 mg/kg QD PO, anti-PD-1 10 mg/kg BIW IP, radiation 2 Gy/day x 5 days, study terminated Day 85",17.5 days
same,survival (in words),"in combination with Anti-PD-1 and Radiation, FIG. 1 legend",increases survival
same,Survival at Day 85,"surviving mice / mice per arm at Day 85, same dosing",1/10

# From patent US20250134899A1, “COMBINATION THERAPIES OF WDR5 INHIBITORS AND PD-1 INHIBITORS” (HUYABIO International, LLC, priority 2023, published 2025)
